Test results: US7074777B2, “Vitamin D derivatives” (Chugai Seiyaku Kabushiki Kaisha, priority 2000, dated 2006)

Legend:
[1] = Test Example 1: ionized calcium level in blood after single percutaneous application to dorsal skin of mice (ion selective electrode method); format: in vivo; details: Balb/c mice, dosage 1000 μg/kg, blood drawn two days after application, mean of 3 mice
Method: Active vitamin D3 (1α,25 (OH)2vitamin D3) dissolved in ethanol at the concentration of 125 μg/ml, Compounds 1 to 13 (the vitamin D derivatives obtained in the above Examples) dissolved in ethanol at the concentration of 500 μg/ml and ethanol alone (as control) were percutaneously applied once to the dorsal skin of respective 8-week-old male Balb/c mice (approximately 1.5×2.0 cm^2). The dosage was 2 ml/kg and each mouse received a necklace to prevent ingestion. On the next day, the application areas were cleaned and necklaces were removed from the mice. Two days after the application, blood was drawn from each mouse in order to measure the ionized calcium level in the blood by an ion selective electrode method. In this experiment, each group contained 3 mice. The ionized calcium levels in the Table indicate the mean values.

[2] = system: Keratinocytes derived from human neonatal foreskin; experiment: Test Example 2: inhibition of human keratinocyte proliferation ([3H] thymidine uptake); format: cell-based; details: relative value = [IC50 (mol/l) of 1α,25(OH)2vitamin D3]/[IC50 (mol/l) of each Compound]
Method: Keratinocytes derived from human neonatal foreskin (Clonetics) were inoculated in 96 well-plates (COSTAR 3595) at 2×10^3 cells/well. Active vitamin D3 (1α,25(OH)2D3) and Compounds 1 to 13 at various concentrations were added to respective wells and cultured at 2×10^3 cells/200 μl/well in KGM-2 medium for 3 days at 37° C. in 5% CO2 and 95% air. After adding [^3H] thymidine at 7.4 kBq/well, the cell culture was continued for further 1 day. After washing the wells with phosphate buffer free of calcium and magnesium (Dulbecco PBS(−), NISSUI, code 05913, pH 7.3 to 7.65) once, the cells were stripped using 0.25% […]. The [^3H] thymidine uptake of the cells was measured by a liquid scintillation counter (1450 microbeta, WALLAC). In the Table, the inhibition of human keratinocyte proliferation is expressed as follows: the relative value of each Compound with respect to active vitamin D3=[IC50 (mol/l) of 1α,25(OH)2vitamin D3]/[IC50 (mol/l) of each Compound]

| Compound | Ionized Ca level [1] [mmol/L] | Human keratinocyte proliferation inhibition (relative value) [2] |
| --- | --- | --- |
| C=C1C(=CC=C2CCCC3(C)C(COCCCC(C)(C)O)=CCC23)CC(O)CC1O (stereo not drawn) [Compound 4, 1α,3β-dihydroxy-17-(4-hydroxy-4-methylpentyloxymethyl)-9,10-secoandrosta-5,7,10(19),16-tetraene] | 1.68 | 0.7 |
| C=C1C(=CC=C2CCCC3(C)C(COCCCC(O)(CC)CC)=CCC23)CC(O)CC1O (stereo not drawn) [Compound 2, 17-(4-ethyl-4-hydroxyhexyloxymethyl)-1α,3β-dihydroxy-9,10-secoandrosta-5,7,10(19),16-tetraene] | 2.12 | 1.9 |
| C=C1C(=CC=C2CCCC3(C)C(COCCCCC(C)(C)O)=CCC23)CC(O)CC1O (stereo not drawn) [Compound 3, 1α,3β-dihydroxy-17-(5-hydroxy-5-methylhexyloxymethyl)-9,10-secoandrosta-5,7,10(19),16-tetraene] | 1.81 | 1.2 |
| C=C1C(=CC=C2CCCC3(C)C(COCCC(C)(C)O)=CCC23)CC(O)CC1O (stereo not drawn) [Compound 1, 1α,3β-dihydroxy-17-(3-hydroxy-3-methylbutoxymethyl)-9,10-secoandrosta-5,7,10(19),16-tetraene] | 1.52 | 0.6 |
| C=C1C(=CC=C2CCCC3(C)C(COCC#CC(C)(C)O)=CCC23)CC(O)CC1O (stereo not drawn) [Compound 5, 1α,3β-dihydroxy-17-(4-hydroxy-4-methyl-2-pentynyloxymethyl)-9,10-secoandrosta-5,7,10(19),16-tetraene] | 1.63 | 1.8 |
| 1α, 25(OH)2D3 | – | 1.0 |
